Assay results taken from US20260015409A1, “RECEPTOR-MEDIATED ENDOCYTOSIS FOR TARGETED INTERNALIZATION AND DEGRADATION OF MEMBRANE PROTEINS AND CARGOS” (Dana-Farber Cancer Institute, Inc., priority 2022, published 2026).
“Also recorded” adds a separate entry of the source. Where a SMILES comes first, the peptide text is derived from it. The star is where a group is joined. Cbz = O=C(OCc1ccccc1)*

Assays:
PC9-GR4 cells = test: MTT cell viability assay, PC9-GR4 cells; assay type: cell-based
PC9 GR4 C797S cells = test: MTT cell viability assay, PC9 GR4 C797S cells
EGFR = target: T1, EGFR (Homo sapiens, UniProt P00533); test: EGFR degradation by Western blot in A549 lung carcinoma cells; assay type: cell-based; conditions: A549 cells treated with EGFR-TransTACs; 1 μM inhibitor
T1 construct: endogenous in cells; host or cells: A549
T1 sequence (P00533 25-1210): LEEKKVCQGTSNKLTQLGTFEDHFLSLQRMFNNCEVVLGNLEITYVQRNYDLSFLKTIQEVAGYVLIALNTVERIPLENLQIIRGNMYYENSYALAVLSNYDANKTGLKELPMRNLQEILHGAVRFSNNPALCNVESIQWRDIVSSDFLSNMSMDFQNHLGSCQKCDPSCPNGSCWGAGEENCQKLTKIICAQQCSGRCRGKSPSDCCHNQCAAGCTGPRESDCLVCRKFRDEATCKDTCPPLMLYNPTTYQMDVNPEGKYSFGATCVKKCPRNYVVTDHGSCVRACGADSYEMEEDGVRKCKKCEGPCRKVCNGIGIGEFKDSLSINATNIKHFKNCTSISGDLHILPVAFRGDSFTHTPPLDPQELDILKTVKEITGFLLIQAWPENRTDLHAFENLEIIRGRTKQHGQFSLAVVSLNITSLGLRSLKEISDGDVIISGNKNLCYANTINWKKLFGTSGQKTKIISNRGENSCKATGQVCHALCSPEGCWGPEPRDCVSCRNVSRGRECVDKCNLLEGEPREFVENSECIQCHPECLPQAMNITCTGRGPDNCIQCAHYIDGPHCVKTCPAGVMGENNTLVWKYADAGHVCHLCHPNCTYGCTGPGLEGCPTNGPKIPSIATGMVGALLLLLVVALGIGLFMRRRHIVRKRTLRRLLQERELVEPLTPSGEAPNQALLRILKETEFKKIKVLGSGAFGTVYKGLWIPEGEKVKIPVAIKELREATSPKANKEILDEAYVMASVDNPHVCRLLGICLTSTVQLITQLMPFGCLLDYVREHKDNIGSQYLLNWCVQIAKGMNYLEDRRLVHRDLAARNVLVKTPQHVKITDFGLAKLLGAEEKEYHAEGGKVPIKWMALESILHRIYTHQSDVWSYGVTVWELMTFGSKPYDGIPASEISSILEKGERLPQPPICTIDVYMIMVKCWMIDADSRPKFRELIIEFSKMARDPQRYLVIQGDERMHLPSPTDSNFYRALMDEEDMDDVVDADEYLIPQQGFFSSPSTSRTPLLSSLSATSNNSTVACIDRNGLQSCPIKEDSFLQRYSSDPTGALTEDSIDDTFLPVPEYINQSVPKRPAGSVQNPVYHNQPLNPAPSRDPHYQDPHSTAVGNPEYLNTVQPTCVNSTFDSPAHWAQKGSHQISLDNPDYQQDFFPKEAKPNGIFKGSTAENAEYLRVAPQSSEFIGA
Protocol: Targeted therapy with tyrosine kinase inhibitors is a standard treatment for lung cancer with EGFR mutations. We reasoned that co-targeting an EGFR and a TfR receptor on lung cancer cells could lead to EGFR inhibition while maintaining high tumor specificity (FIG. 30A). We generated an anti-EGFR affibody*H7*GFLG-VR TransTAC. Incubation of the molecule with a human lung adenocarcinoma A549 cell line led to >90% EGFR degradation (FIG. 30B). […] This specificity results from higher TfR expression in tumor cells (FIG. 27A-C).
Next, we aimed to target epidermal growth factor receptor (EGFR), a receptor tyrosine kinase that plays an important role in the development and progression of various types of cancers such as lung and brain. An affibody (Friedman, Mikaela, et al. “Directed evolution to low nanomolar affinity of a tumor-targeting epidermal growth factor receptor-binding affibody molecule.” Journal of molecular biology 376.5, 2008: 1388-1402) was used to bind EGFR and create an EGFR-TransTAC.
We next investigated the cellular mechanism underlying TransTAC-mediated protein degradation. Two primary pathways involved in the degradation of cellular proteins were tested: the lysosomal pathway and the proteosome pathway. A549 cells were treated either with bafilomycin, a vacuolar proton pump inhibitor that inhibits lysosomal acidification, or MG132, a proteasomal inhibitor.

CD20 = target: T2, CD20 (Homo sapiens, UniProt P11836); test: CD20 degradation in Raji cells; assay type: cell-based; conditions: Western blot
T2 construct: endogenous in cells; host or cells: Raji
T2 sequence (P11836 1-297): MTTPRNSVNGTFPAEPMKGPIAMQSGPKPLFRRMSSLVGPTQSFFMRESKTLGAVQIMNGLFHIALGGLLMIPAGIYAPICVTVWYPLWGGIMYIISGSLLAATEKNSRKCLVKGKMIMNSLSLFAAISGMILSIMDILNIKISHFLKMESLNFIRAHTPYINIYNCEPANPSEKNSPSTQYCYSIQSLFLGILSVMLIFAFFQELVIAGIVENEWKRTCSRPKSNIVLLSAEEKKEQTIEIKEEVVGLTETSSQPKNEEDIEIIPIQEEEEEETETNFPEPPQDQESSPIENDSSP
Excerpt: Cluster of differentiate 20 (CD20) is a B cell-specific surface marker with four transmembrane domains and an unknown function. Knocking down cell surface CD20s with a degrader can be valuable. A CD20-TransTAC was created using a Fab format of Rituximab, the first clinically approved CD20 antibody, to bind CD20.

| Compound | IC50 (PC9-GR4 cells) | effect of inhibitor on TransTAC-mediated EGFR degradation (EGFR) | also measured |
| --- | --- | --- | --- |
| C=CC(=O)Nc1cc(Nc2nccc(-c3cn(C)c4ccccc34)n2)c(OC)cc1N(C)CCN(C)C [osimertinib] | 207 nM |  | inhibition of cell viability (PC9 GR4 C797S cells): did not respond |
| CO/C1=C\C(C)=C\[C@@H](C)[C@@H](O)[C@@H](C)C/C(C)=C/C=C/[C@H](OC)[C@@H]([C@@H](C)[C@@H](O)[C@H](C)[C@@]2(O)C[C@@H](O)[C@H](C)[C@@H](C(C)C)O2)OC1=O [bafilomycin] |  | sensitive; also recorded: prevented TransTAC-mediated EGFR degradation; also recorded: fully inhibited |  |
| rituximab-scFv-Fc control: rituximab scFv-Fc control without TfR binder |  |  | CD20 degradation (CD20): does not lead to significant CD20 degradation |
| CN(C)C/C=C/C(=O)Nc1cc2c(Nc3ccc(F)c(Cl)c3)ncnc2cc1O[C@H]1CCOC1 [afatinib] | 168 nM |  |  |
| CC(C)C[C@@H](C=O)NC(=O)[C@H](CC(C)C)NC(=O)[C@H](CC(C)C)NC(=O)OCc1ccccc1 [MG132] (Cbz-Leu-Leu-Leu-aldehyde) |  | sensitive; also recorded: much less significant effect |  |
